Marks after values point to notes of the source that are not given here.
Experiments:
CRF rats = test: CRF induced by 5/6 nephrectomy in rats; type: in vivo, Sprague Dawley rats
hepatofibrosis in rats = test: CCl4-induced hepatofibrosis in chronic hepatitis in rats; type: in vivo, Sprague Dawley rats; conditions: 6 weeks; for fiber proliferation level 0 (number of rats) / fiber proliferation level I (number of rats) / fiber proliferation level II (number of rats) / fiber proliferation level III (number of rats) / fiber proliferation level IV (number of rats): n=10
Method: 120 rats were randomly divided into 12 groups, with 10 in each group, namely, a normal control group, a model group, […] Apart from the normal control group, all rats were s.c. injected 0.3 ml of 40% solution of CC14 in oil per 100 g of body weight once every 3 days for 6 weeks. Animals in the normal control group were s.c. injected 0.3 ml/100 g body weight of oil vehicle following the same schedule as the experimental groups. First dose was doubled for all animals. Six weeks later, drugs were continuously administered to animals in each group for 6 weeks. After the administration was completed, all animals were anaesthetised with i.p. injection of 20% ethyl carbamate solution (Beijing Tongxian District Yucai Fine Chemicals). Blood was collected from abdominal aorta. Hepatic lobule tissue was removed, part of which was fixed with 10% neutral foinialin solution and made into wax blocks within 24-48 hours. […] Serum HA, LN, Pc III levels and hepatic HYP level were determined according to the respective kit instructions.

SMILES: O=C(/C=C/c1ccc(O)c(O)c1)O[C@H](Cc1ccc(O)c(O)c1)C(=O)O [RA, R(+)2-{[3-(3,4-dihydroxylphenyl-(oxo-2-propenyl)oxy]3,4-dihydroxylphenylpropionic acid]}]
- Serum creatinine (CRF rats; 4 weeks, i.v. 2.5 mg/kg): 1.32 ± 0.18 mg/dL
- Serum urea nitrogen (CRF rats; 4 weeks, i.v. 2.5 mg/kg): 21.12 ± 2.40 mg/dL
- Serum creatinine (CRF rats; 4 weeks, i.v. 5 mg/kg): 1.29 ± 0.31 mg/dL
- Serum urea nitrogen (CRF rats; 4 weeks, i.v. 5 mg/kg): 16.90 ± 4.09 mg/dL
- Serum creatinine (CRF rats; 4 weeks, i.v. 25 mg/kg): 1.12 ± 0.24 mg/dL
- Serum urea nitrogen (CRF rats; 4 weeks, i.v. 25 mg/kg): 14.63 ± 3.25 mg/dL
- Serum creatinine (CRF rats; 4 weeks, i.v. 75 mg/kg): 1.02 ± 0.19 mg/dL
- Serum urea nitrogen (CRF rats; 4 weeks, i.v. 75 mg/kg): 13.39 ± 2.45 mg/dL
- Serum creatinine (CRF rats; 4 weeks, i.v. 150 mg/kg): 1.01 ± 0.33 mg/dL
- Serum urea nitrogen (CRF rats; 4 weeks, i.v. 150 mg/kg): 12.85 ± 3.88 mg/dL
- Serum creatinine (CRF rats; 4 weeks, p.o. 5 mg/kg): 1.55 ± 0.16 mg/dL
- Serum creatinine (CRF rats; 4 weeks, p.o. 10 mg/kg): 1.42 ± 0.24 mg/dL
- Serum urea nitrogen (CRF rats; 4 weeks, p.o. 10 mg/kg): 18.60 ± 3.11 mg/dL
- Serum creatinine (CRF rats; 4 weeks, p.o. 50 mg/kg): 1.53 ± 0.15 mg/dL
- Serum creatinine (CRF rats; 4 weeks, p.o. 150 mg/kg): 1.30 ± 0.22 mg/dL
- Serum urea nitrogen (CRF rats; 4 weeks, p.o. 150 mg/kg): 17.01 ± 3.95 mg/dL
- Serum creatinine (CRF rats; 4 weeks, p.o. 300 mg/kg): 1.29 ± 0.28 mg/dL
- Serum urea nitrogen (CRF rats; 4 weeks, p.o. 300 mg/kg): 16.76 ± 4.30 mg/dL
- Serum creatinine (CRF rats; 8 weeks, i.v. 2.5 mg/kg): 1.89 ± 0.22 mg/dL
- Serum urea nitrogen (CRF rats; 8 weeks, i.v. 2.5 mg/kg): 22.15 ± 3.09 mg/dL
- Serum creatinine (CRF rats; 8 weeks, i.v. 5 mg/kg): 1.75 ± 0.37 mg/dL
- Serum urea nitrogen (CRF rats; 8 weeks, i.v. 5 mg/kg): 21.73 ± 5.26 mg/dL
- Serum creatinine (CRF rats; 8 weeks, i.v. 25 mg/kg): 1.51 ± 0.32 mg/dL
- Serum urea nitrogen (CRF rats; 8 weeks, i.v. 25 mg/kg): 19.25 ± 3.19 mg/dL
- Serum creatinine (CRF rats; 8 weeks, i.v. 75 mg/kg): 1.39 ± 0.26 mg/dL
- Serum urea nitrogen (CRF rats; 8 weeks, i.v. 75 mg/kg): 15.07 ± 3.45 mg/dL
- Serum creatinine (CRF rats; 8 weeks, i.v. 150 mg/kg): 1.37 ± 0.44 mg/dL
- Serum urea nitrogen (CRF rats; 8 weeks, i.v. 150 mg/kg): 14.85 ± 3.88 mg/dL
- Serum creatinine (CRF rats; 8 weeks, p.o. 5 mg/kg): 2.09 ± 0.22 mg/dL
- Serum creatinine (CRF rats; 8 weeks, p.o. 10 mg/kg): 2.06 ± 0.21 mg/dL
- Serum urea nitrogen (CRF rats; 8 weeks, p.o. 10 mg/kg): 25.65 ± 2.57 mg/dL
- Serum urea nitrogen (CRF rats; 8 weeks, p.o. 50 mg/kg): 23.91 ± 4.00 mg/dL
- Serum creatinine (CRF rats; 8 weeks, p.o. 150 mg/kg): 1.76 ± 0.30 mg/dL
- Serum urea nitrogen (CRF rats; 8 weeks, p.o. 150 mg/kg): 21.96 ± 3.95 mg/dL
- Serum urea nitrogen (CRF rats; 8 weeks, p.o. 300 mg/kg): 20.76 ± 5.50 mg/dL
- serum creatinine and urea nitrogen levels vs model group (CRF rats; i.v. 2.5, 5, 25, 75, 150 mg/kg, p.o. 5, 10, 50, 150, 300 mg/kg): can all significantly reduce serum creatinine and urea nitrogen levels
- renal pathological changes (HE, PAS) (CRF rats; week 4): alleviated in RA treated animals in a dose-dependent manner
- T (Rank-sum test of fibrosis) (hepatofibrosis in rats; RA i.v. 2.5 mg/kg): 82*
- fiber proliferation level 0 (number of rats) (hepatofibrosis in rats; RA i.v. 2.5 mg/kg): 0
- fiber proliferation level I (number of rats) (hepatofibrosis in rats; RA i.v. 2.5 mg/kg): 1
- fiber proliferation level II (number of rats) (hepatofibrosis in rats; RA i.v. 2.5 mg/kg): 2
- fiber proliferation level III (number of rats) (hepatofibrosis in rats; RA i.v. 2.5 mg/kg): 3
- fiber proliferation level IV (number of rats) (hepatofibrosis in rats; RA i.v. 2.5 mg/kg): 4
- T (Rank-sum test of fibrosis) (hepatofibrosis in rats; RA i.v. 5 mg/kg): 81.5*
- fiber proliferation level 0 (number of rats) (hepatofibrosis in rats; RA i.v. 5 mg/kg): 0
- fiber proliferation level I (number of rats) (hepatofibrosis in rats; RA i.v. 5 mg/kg): 1
- fiber proliferation level II (number of rats) (hepatofibrosis in rats; RA i.v. 5 mg/kg): 2
- fiber proliferation level III (number of rats) (hepatofibrosis in rats; RA i.v. 5 mg/kg): 6
- fiber proliferation level IV (number of rats) (hepatofibrosis in rats; RA i.v. 5 mg/kg): 1
- T (Rank-sum test of fibrosis) (hepatofibrosis in rats; RA i.v. 25 mg/kg): 76*
- fiber proliferation level 0 (number of rats) (hepatofibrosis in rats; RA i.v. 25 mg/kg): 0
- fiber proliferation level I (number of rats) (hepatofibrosis in rats; RA i.v. 25 mg/kg): 2
- fiber proliferation level II (number of rats) (hepatofibrosis in rats; RA i.v. 25 mg/kg): 3
- fiber proliferation level III (number of rats) (hepatofibrosis in rats; RA i.v. 25 mg/kg): 4
- fiber proliferation level IV (number of rats) (hepatofibrosis in rats; RA i.v. 25 mg/kg): 1
- T (Rank-sum test of fibrosis) (hepatofibrosis in rats; RA i.v. 75 mg/kg): 71**
- fiber proliferation level 0 (number of rats) (hepatofibrosis in rats; RA i.v. 75 mg/kg): 0
- fiber proliferation level I (number of rats) (hepatofibrosis in rats; RA i.v. 75 mg/kg): 3
- fiber proliferation level II (number of rats) (hepatofibrosis in rats; RA i.v. 75 mg/kg): 2
- fiber proliferation level III (number of rats) (hepatofibrosis in rats; RA i.v. 75 mg/kg): 5
- fiber proliferation level IV (number of rats) (hepatofibrosis in rats; RA i.v. 75 mg/kg): 0
- T (Rank-sum test of fibrosis) (hepatofibrosis in rats; RA i.v. 150 mg/kg): 66**
- fiber proliferation level 0 (number of rats) (hepatofibrosis in rats; RA i.v. 150 mg/kg): 0
- fiber proliferation level I (number of rats) (hepatofibrosis in rats; RA i.v. 150 mg/kg): 3
- fiber proliferation level II (number of rats) (hepatofibrosis in rats; RA i.v. 150 mg/kg): 4
- fiber proliferation level III (number of rats) (hepatofibrosis in rats; RA i.v. 150 mg/kg): 3
- fiber proliferation level IV (number of rats) (hepatofibrosis in rats; RA i.v. 150 mg/kg): 0
- T (Rank-sum test of fibrosis) (hepatofibrosis in rats; RA p.o. 2.5 mg/kg): 95
- fiber proliferation level 0 (number of rats) (hepatofibrosis in rats; RA p.o. 2.5 mg/kg): 0
- fiber proliferation level I (number of rats) (hepatofibrosis in rats; RA p.o. 2.5 mg/kg): 1
- fiber proliferation level II (number of rats) (hepatofibrosis in rats; RA p.o. 2.5 mg/kg): 2

— patent US20100130604A1, “USE OF ROSMARINIC ACID IN MANUFACTURE OF MEDICAMENTS FOR TREATING OR PREVENTING HEPATIC AND RENAL DISEASES” (SHANGDONG LUYE NATURAL DRUG RESEARCH AND DEVELOPMENT CO., …, priority 2006, published 2010)
